Test results as given in patent publication US8623909B2, “Prophylactic/therapeutic agents for lifestyle-related diseases” (priority 2008, dated 2014).
Marks after values point to notes of the source that are not given here.

Columns and labels:
Type in all cases: in vivo, rat
ORX rats [1] = assay: Anal levator muscle weight in ORX rats (anabolic effect); conditions: for Anal levator muscle weight: 21 days, solvent 41.6, sham 73.1; for Change in anal levator muscle weight (in words): dihydrotestosterone 1 and 10 mg/kg, compound of formula (Ia) 10 mg/kg
Protocol: (§1) 11-week-old, male Sprague-Dawley (SD) rats (320 to 340 g, purchased from Charles River Japan) were housed for 1 week in a room maintained at a light-dark cycle of 12 hours per day and controlled at a set temperature and humidity while allowing free access to a commercially available standard rodent diet and water.
(§2) After housing the animals, the animals were anesthetized with ether, and underwent bilateral orchiectomy (orchiectomized rats: ORX) or a sham treatment. After awaking from the anesthesia, the animals were assigned to test groups of 3 to 5 animals each. Starting on the day after surgery, the animals were subcutaneously injected once a day with an injection solution of the test compound (prepared by dissolving the test compound in a small amount of DMSO and diluting with olive oil for animal testing (consisting of 95% olive oil and 5% DMSO)) at the rate of 0.1 ml/100 g of body weight. After 21 days, the rats were sacrificed by exsanguination from the abdominal artery, the ventral prostates and anal levator muscle were excised and weighed followed by immersing in RNAlater (Nacalai Tesque) for extraction of RNA. In addition, soft tissue was removed from the right femur, and immersed in 75% ethanol followed by storage for subsequent measurement of the bone mineral density. Moreover, liver and visceral fat tissue were collected and immersed in RNAlater for RNA extraction.
(§3) The anabolic effect of compounds was studied by using as indicators changes in anal levator muscle weight and bone mineral density (BMD) of the femur and vertebra in the ORX rats treated in the aforementioned section (4)-1).
Anal levator muscle is a typical skeletal muscle localized around the rat rectum, and is considered to be sensitive to male steroid hormone. Although the anal levator muscle is considerably smaller in castrated rats as compared with normal male rats, its weight is well known to be able to be restored to normal by administration of androgen (J. Pharmacol. Exp. Ther., 91, 38-44). The results of measuring the weights of the anal levator muscle in the ORX rats obtained in section (4)-1) are shown in the following Table 7.

PPARδ mRNA = PPARδ mRNA in anal levator muscle of ORX rats; conditions: for PPARδ mRNA/GAPDH mRNA in anal levator muscle: solvent 1.0, sham 0.5; for Effect on PPARδ mRNA expression in anal levator muscle (in words): dihydrotestosterone 1 and 10 mg/kg, compound of formula (Ia) 10 mg/kg
Protocol: as §1, §2
(§4) Total RNA in various tissues of the ORX rats was isolated using the RNeasy Mini Kit or RNeasy Fibrous Tissue Mini Kit (Qiagen). 1 μg of this total RNA was subjected to reverse transcription using the QuantiaTect Reverse Transcription Kit (Qiagen). Next, cDNA was subjected to real-time PCR analysis using LightCycler (Roche Diagnostics) and each of the transcription products was quantified. Furthermore, PCR was carried out in 20 μl of a reaction mixture under the following conditions using SYBR Premix Ex Taq (Takara Biotechnology): 50 cycles consisting of denaturation for 5 seconds at 95° C., annealing for 20 seconds at 60° C. and elongation for 25 seconds at 72° C. In addition, glyceraldehyde-3-phosphate dehydrogenase (GAPDH) mRNA was simultaneously amplified as an internal standard, and the real-time PCR value of each transcription product were calculated as a relative value based on GAPDH.
In addition, expression levels of peroxisome proliferator activating factor receptor-delta (PPARδ) mRNA in anal levator muscle were also measured. This is because this nuclear receptor has been indicated to be related to β-oxidation of fatty acids and energy consumption in skeletal muscle (Proc. Natl. Acad. Sci. USA, 100, 15924-15929). Furthermore, measurements were carried out using a similar method as that previously described.

ORX rats [2] = assay: Femoral bone mineral density in ORX rats; conditions: solvent 465.3, sham 517.1
Protocol: as §1, §2, §3
BMD value of epiphyseal cancellous bone of the femur and vertebra of ORX rats treated in the aforementioned section (4)-1) were measured using Scan Xmate-A100S (Comscantecno).

ORX rats [3] = assay: Plasma LH concentration in ORX rats; conditions: for Plasma LH concentration: solvent 10.3, sham 1.7; for Effect on LH levels (in words): 1 and 10 mg/Kg
Excerpt: as §2, with “Starting on the day after surgery, the animals were subcutaneously injected once a day with an injection solution of the test compound (prepared by dissolving the test compound in a small amount of DMSO and diluting with olive oil for animal testing (consisting of 95% olive oil and 5% DMSO)) at the rate of 0.1 ml/100 g of body weight.” left out
(§5) Characteristics of the effect of compounds on the pituitary gland were investigated by measuring plasma concentrations of LH and FSH in ORX rats treated in the aforementioned section (4)-1).

ORX rats [4] = assay: Plasma FSH concentration in ORX rats; conditions: for Plasma FSH concentration: solvent 44.1, sham 12.1; for Effect on FSH levels (in words): dose of 1 or 10 mg/kg
Excerpt: as §2, with “Starting on the day after surgery, the animals were subcutaneously injected once a day with an injection solution of the test compound (prepared by dissolving the test compound in a small amount of DMSO and diluting with olive oil for animal testing (consisting of 95% olive oil and 5% DMSO)) at the rate of 0.1 ml/100 g of body weight.” left out
as §5

ORX rats [5] = assay: Plasma insulin level in ORX rats; conditions: for Plasma insulin concentration: solvent 1.0, sham 1.6; for Effect on insulin levels (in words): 1 and 10 mg/Kg
Excerpt: as §2, with “Starting on the day after surgery, the animals were subcutaneously injected once a day with an injection solution of the test compound (prepared by dissolving the test compound in a small amount of DMSO and diluting with olive oil for animal testing (consisting of 95% olive oil and 5% DMSO)) at the rate of 0.1 ml/100 g of body weight.” left out
The inventors of the present invention measured total plasma adiponectin levels in ORX rats treated in the aforementioned section (4)-1). Plasma insulin levels were also measured simultaneously.

SREBP-1c mRNA = SREBP-1c mRNA level in liver and visceral fat of ORX rats
Excerpt: as §2, with “Starting on the day after surgery, the animals were subcutaneously injected once a day with an injection solution of the test compound (prepared by dissolving the test compound in a small amount of DMSO and diluting with olive oil for animal testing (consisting of 95% olive oil and 5% DMSO)) at the rate of 0.1 ml/100 g of body weight.” left out
as §4
(§6) In addition, mRNA levels of insulin receptor substrate 2 (IRS-2) in the liver were also measured.

FAS mRNA = FAS mRNA level in liver and visceral fat of ORX rats
Excerpt: as §2, with “Starting on the day after surgery, the animals were subcutaneously injected once a day with an injection solution of the test compound (prepared by dissolving the test compound in a small amount of DMSO and diluting with olive oil for animal testing (consisting of 95% olive oil and 5% DMSO)) at the rate of 0.1 ml/100 g of body weight.” left out
as §4, §6

CPT-1 mRNA = CPT-1 mRNA level in liver and visceral fat of ORX rats
Excerpt: as §2, with “Starting on the day after surgery, the animals were subcutaneously injected once a day with an injection solution of the test compound (prepared by dissolving the test compound in a small amount of DMSO and diluting with olive oil for animal testing (consisting of 95% olive oil and 5% DMSO)) at the rate of 0.1 ml/100 g of body weight.” left out
as §4, §6

[6] = liver, 1 mg/Kg, solvent 0.7, sham 1.0
[7] = liver, 10 mg/Kg, solvent 0.7, sham 1.0
[8] = visceral fat, 1 mg/Kg, solvent 1.0, sham 1.0
[9] = visceral fat, 10 mg/Kg, solvent 1.0, sham 1.0
[10] = liver, 1 mg/Kg, solvent 0.9, sham 1.0
[11] = liver, 10 mg/Kg, solvent 0.9, sham 1.0
[12] = visceral fat, 1 mg/Kg, solvent 0.5, sham 1.0
[13] = visceral fat, 10 mg/Kg, solvent 0.5, sham 1.0
[14] = liver, 1 mg/Kg, solvent 1.4, sham 1.0
[15] = liver, 10 mg/Kg, solvent 1.4, sham 1.0
[16] = visceral fat, 1 mg/Kg, solvent 1.7, sham 1.0
[17] = visceral fat, 10 mg/Kg, solvent 1.7, sham 1.0

Structure (SMILES) | Anal levator muscle weight (ORX rats [1]; 1 mg/Kg s.c. once a day) | Anal levator muscle weight (ORX rats [1]; 10 mg/Kg s.c. once a day) | Change in anal levator muscle weight (in words) (ORX rats [1]) | PPARδ mRNA/GAPDH mRNA in anal levator muscle (PPARδ mRNA; 1 mg/Kg) | PPARδ mRNA/GAPDH mRNA in anal levator muscle (PPARδ mRNA; 10 mg/Kg) | Effect on PPARδ mRNA expression in anal levator muscle (in words) (PPARδ mRNA) | Femoral BMD (ORX rats [2]; 1 mg/Kg) [mg/mL] | Femoral BMD (ORX rats [2]; 10 mg/Kg) [mg/mL] | Effect on LH levels (in words) (ORX rats [3]) | Effect on FSH levels (in words) (ORX rats [4]) | Effect on insulin levels (in words) (ORX rats [5]) | SREBP-1c mRNA/GAPDH mRNA level (SREBP-1c mRNA; [6]) | SREBP-1c mRNA/GAPDH mRNA level (SREBP-1c mRNA; [7]) | SREBP-1c mRNA/GAPDH mRNA level (SREBP-1c mRNA; [8]) | SREBP-1c mRNA/GAPDH mRNA level (SREBP-1c mRNA; [9]) | FAS mRNA/GAPDH mRNA level (FAS mRNA; [10]) | FAS mRNA/GAPDH mRNA level (FAS mRNA; [11]) | FAS mRNA/GAPDH mRNA level (FAS mRNA; [12]) | FAS mRNA/GAPDH mRNA level (FAS mRNA; [13]) | CPT-1 mRNA/GAPDH mRNA level (CPT-1 mRNA; [14]) | also measured
CC(=O)[C@H]1CCC2C3CCc4c(C)cccc4C3CC[C@@]21C (some centres unmarked) [Compound of formula (Ia)] | 59.1^ mg/100 g body weight | 66.2* mg/100 g body weight | increased significantly to a similar level to that observed in the sham treatment group | 0.9 | 1.7* | enhanced this expression | 447.2 | 454.0 | did not inhibit LH levels, but rather increased LH levels dose-dependently | did not have any effect on FSH | this activity was milder | 0.8 | 0.6 | 0.8 | 0.5 | 0.7 | 0.5 | 0.3* | 0.6 | 3.2**^,# | Femoral BMD (ORX rats [2]; 30 mg/Kg): 475.9 mg/mL; Plasma LH concentration (ORX rats [3]; 1 mg/Kg): 12.6** ng/mL; Plasma LH concentration (ORX rats [3]; 10 mg/Kg): 19.9*^,## ng/mL; Plasma FSH concentration (ORX rats [4]; 1 mg/Kg): 48.7* ng/mL; Plasma FSH concentration (ORX rats [4]; 10 mg/Kg): 46.3* ng/mL; Plasma insulin concentration (ORX rats [5]; 1 mg/Kg): 1.5 µg/mL; Plasma insulin concentration (ORX rats [5]; 10 mg/Kg): 2.9 µg/mL; SREBP-1c mRNA levels (in words) (SREBP-1c mRNA; liver and visceral fat): lower in both tissues; FAS mRNA levels (in words) (FAS mRNA; liver and visceral fat): also lower; CPT-1 mRNA levels (in words) (CPT-1 mRNA; liver and visceral fat): higher in comparison with dihydrotestosterone; CPT-1 mRNA/GAPDH mRNA level (CPT-1 mRNA; [15]): 4.2*; CPT-1 mRNA/GAPDH mRNA level (CPT-1 mRNA; [16]): 2.0; CPT-1 mRNA/GAPDH mRNA level (CPT-1 mRNA; [17]): 2.6
C[C@]12CCC(=O)C[C@@H]1CC[C@@H]1[C@@H]2CC[C@]2(C)[C@@H](O)CC[C@@H]12 [Dihydrotestosterone, 5α-dihydrotestosterone, reference compound] | 93.8^## mg/100 g body weight | 120.6**^,## mg/100 g body weight | weights increased beyond those in the case of the sham treated rats | 0.9 | 0.5 | inhibited this expression dose-dependently | 472.0 | 473.6 | inhibited LH levels | inhibited to levels observed in the untreated control group | increased the insulin levels | 3.4 | 3.2 | 1.8 | 2.2 | 8.0 | 7.1 | 2.3 | 3.5*^,# | 1.3 | CPT-1 mRNA/GAPDH mRNA level (CPT-1 mRNA; [15]): 0.4; CPT-1 mRNA/GAPDH mRNA level (CPT-1 mRNA; [16]): 1.7; CPT-1 mRNA/GAPDH mRNA level (CPT-1 mRNA; [17]): 0.8
